The values below come from patent US9884843B2 (Peloton Therapeutics, Inc., priority 2013, dated 2018).

Structures are written as SMILES. pIC50: −log10 of the molar value.

The target in one experiment is HIF-2α HIS TAG-PASB Domain (Homo sapiens, UniProt Q99814). Nature of the experiment: biochemical. Format: binding. The following applies: displacement of Compound 120 probe; mean; read-out: Mean SPA IC50. The text has this: The term “scintillation proximity assay” (SPA) refers to a homogenous assay in which light is emitted when a radiolabeled ligand is brought into close proximity to a radiosensitive bead. The assay typically contains a target protein that contains a tag (e.g., His Tag, Glutathione S-transferase Tag). The tag on the protein is used to bind the target protein to the scintillation bead. Radiolabeled ligand (e.g., labeled with tritium) that binds to the protein is now in close proximity to the bead, and when the raidolabel (e.g., tritium) decays, the high energy particle hits the bead resulting in the emission of light that is detected by a detector, such as photomultiplier tube or CCD camera. When unlabeled ligands or compounds that bind to the protein are used in the assay, they displace the radiolabeled ligand, resulting in loss of signal.
HIF-2α HIS TAG-PASB Domain, sequence (Q99814 whole entry, looked up, the tested form may be a part): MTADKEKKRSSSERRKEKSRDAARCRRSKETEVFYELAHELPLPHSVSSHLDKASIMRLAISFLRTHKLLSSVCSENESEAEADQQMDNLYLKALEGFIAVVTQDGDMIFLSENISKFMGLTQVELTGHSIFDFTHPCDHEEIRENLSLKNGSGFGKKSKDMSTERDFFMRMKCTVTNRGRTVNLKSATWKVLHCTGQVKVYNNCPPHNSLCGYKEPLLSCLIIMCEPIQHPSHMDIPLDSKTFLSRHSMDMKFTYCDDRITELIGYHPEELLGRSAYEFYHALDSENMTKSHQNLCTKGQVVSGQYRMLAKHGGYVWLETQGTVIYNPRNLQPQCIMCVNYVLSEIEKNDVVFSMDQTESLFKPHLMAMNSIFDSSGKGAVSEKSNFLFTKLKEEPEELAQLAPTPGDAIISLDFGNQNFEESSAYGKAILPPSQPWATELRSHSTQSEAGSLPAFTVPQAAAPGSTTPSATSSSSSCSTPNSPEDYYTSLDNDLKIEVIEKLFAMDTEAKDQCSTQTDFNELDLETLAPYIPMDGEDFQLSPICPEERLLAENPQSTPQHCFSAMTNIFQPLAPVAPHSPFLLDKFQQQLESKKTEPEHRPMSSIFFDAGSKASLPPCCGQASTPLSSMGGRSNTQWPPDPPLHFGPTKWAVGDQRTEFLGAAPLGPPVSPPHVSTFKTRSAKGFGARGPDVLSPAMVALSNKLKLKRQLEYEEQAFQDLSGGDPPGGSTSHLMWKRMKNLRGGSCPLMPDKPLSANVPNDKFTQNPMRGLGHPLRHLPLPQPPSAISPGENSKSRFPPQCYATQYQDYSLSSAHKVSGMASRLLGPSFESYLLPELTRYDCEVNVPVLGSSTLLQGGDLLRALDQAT
The total assay volume was about 100 μL in the following configuration: 2-μL compound in DMSO, 88 μL buffer with protein and probe and 10 μL of SPA beads. […] To each compound, 88 μL of the buffer solution was then added. […] The percent inhibition was determined and IC50 values were calculated using the Dotmatics system based on the following equation: % inhibition=[(high control−sample)/(high control−low control)]×100.
`N#Cc1cc(F)cc(Oc2ccc3c(c2Br)[C@@H](O)C(F)(F)S3(=O)=O)c1` [Compound 1, (R)-3-((4-bromo-2,2-difluoro-3-hydroxy-1,1-dioxido-2,3-dihydrobenzo[b]thiophen-5-yl)oxy)-5-fluorobenzonitrile]: the negative-log IC50 (pIC50) is 8.15.
As for `N#Cc1c(Oc2cc(F)cc(Cl)c2)ccc2c1[C@@H](O)CS2(=O)=O` [Compound 2, (3R)-5-(3-Chloro-5-fluoro-phenoxy)-3-hydroxy-1,1-dioxo-2,3-dihydrobenzothiophene-4-carbonitrile], the pIC50 is 7.33.
As for `O=S1(=O)CCc2c1ccc(Oc1cc(F)cc(Cl)c1)c2Br` [Compound 4, 4-Bromo-5-(3-chloro-5-fluorophenoxy)-2,3-dihydrobenzo[b]thiophene 1,1-dioxide], the negative-log IC50 (pIC50) was 5.36.
The same measure, in the same setting: the same measure for `N#Cc1c(Oc2cc(F)cc(Cl)c2)ccc2c1CCS2(=O)=O` [Compound 5, 5-(3-Chloro-5-fluorophenoxy)-2,3-dihydrobenzo[b]thiophene-4-carbonitrile 1,1-dioxide]: 5.31; for `O=C1c2c(ccc(Oc3cc(F)cc(Cl)c3)c2Br)S(=O)(=O)C1(F)F` [Compound 8, 4-Bromo-5-(3-chloro-5-fluorophenoxy)-2,2-difluorobenzo[b]thiophen-3(2H)-one 1,1-dioxide]: 5.85.
The same measure, in the same setting: the same measure for `NC1c2c(ccc(Oc3cc(F)cc(F)c3)c2C(F)F)S(=O)(=O)C1F` (centres unmarked) [Compound 20, 3-amino-4-(difluoromethyl)-5-(3,5-difluorophenoxy)-2-fluoro-2,3-dihydrobenzo[b]thiophene 1,1-dioxide]: 5.81.
For the compound `NC1CS(=O)(=O)c2ccc(Oc3cc(F)cc(F)c3)c(C(F)F)c21` (centres unmarked) [Compound 21], the pIC50 was 4.93.

The experiment is the same for the next values; noted with them: unnumbered compounds listed by structure and name; read-out: IC50 value in SPA.
On to `N#Cc1cc(F)cc(Oc2ccc3c(c2Cl)C(=O)C(F)(F)S3(=O)=O)c1` [3-(4-chloro-2,2-difluoro-1,1,3-trioxo-benzothiophen-5-yl)oxy-5-fluoro-benzonitrile], for which the pIC50 is 4.00 to 4.60.
The same measure, in the same setting: the same measure for `N#Cc1cccc(Oc2ccc3c(c2C(F)F)C(=O)C(F)(F)S3(=O)=O)c1` [3-[4-(difluoromethyl)-2,2-difluoro-1,1,3-trioxo-benzothiophen-5-yl]oxybenzonitrile]: 4.00 to 4.60.
As for `N#Cc1cc(F)cc(Oc2ccc3c(c2C#CCO)C(O)C(F)(F)S3(=O)=O)c1` (centres unmarked) [3-[[2,2-difluoro-3-hydroxy-4-(3-hydroxyprop-1-ynyl)-1,1-dioxo-3H-benzothiophen-5-yl]oxy]-5-fluoro-benzonitrile], the pIC50 is less than 4.00.
Same read-out and setting: the same measure for `N#Cc1cc(F)cc(Oc2ccc3c(c2C(F)F)C(NCC(F)F)CS3(=O)=O)c1` (centres unmarked) [3-[[3-(2,2-difluoroethylamino)-4-(difluoromethyl)-1,1-dioxo-2,3-dihydrobenzothiophen-5-yl]oxy]-5-fluoro-benzonitrile]: less than 4.00; for `N#CCNC1CS(=O)(=O)c2ccc(Oc3cc(F)cc(C#N)c3)c(C(F)F)c21` (centres unmarked) [3-[[3-(cyanomethylamino)-4-(difluoromethyl)-1,1-dioxo-2,3-dihydrobenzothiophen-5-yl]oxy]-5-fluoro-benzonitrile]: less than 4.00.
Still for that read-out and setting: as for `CO/C(=C/C(F)F)c1c(Oc2cc(F)cc(C#N)c2)ccc2c1C(O)C(F)(F)S2(=O)=O` (centres unmarked) [3-[[4-[(E)-3,3-difluoro-1-methoxy-prop-1-enyl]-2,2-difluoro-3-hydroxy-1,1-dioxo-3H-benzothiophen-5-yl]oxy]-5-fluoro-benzonitrile], the figure is 4.00 to 4.60; as for `N#Cc1cc(F)cc(Oc2ccc3c(c2C(F)F)C(NCCC(=O)O)C(F)(F)S3(=O)=O)c1` (centres unmarked) [3-[[5-(3-cyano-5-fluoro-phenoxy)-4-(difluoromethyl)-2,2-difluoro-1,1-dioxo-3H-benzothiophen-3-yl]amino]propanoic acid], less than 4.00; as for `N#Cc1cc(F)cc(Oc2ccc3c(c2CF)C(O)CS3(=O)=O)c1` (centres unmarked) [3-fluoro-5-[[4-(fluoromethyl)-3-hydroxy-1,1-dioxo-2,3-dihydrobenzothiophen-5-yl]oxy]benzonitrile], 4.00 to 4.60.
On the same count and under the same terms, the same measure for `NC1c2c(ccc(OC3CCOCC3)c2C(F)F)S(=O)(=O)C1(F)F` (centres unmarked) [4-(difluoromethyl)-2,2-difluoro-1,1-dioxo-5-tetrahydropyran-4-yloxy-3H-benzothiophen-3-amine]: 4.00 to 4.60.
With `O=C1CS(=O)(=O)c2ccc(Oc3ccc(F)c(F)c3)c(C(F)F)c21` [4-(difluoromethyl)-5-(3,4-difluorophenoxy)-1,1-dioxo-benzothiophen-3-one], the negative-log IC50 (pIC50) is less than 4.00.
Consider `O=C1c2c(ccc(Oc3ccc(F)c(F)c3)c2C(F)F)S(=O)(=O)C1(F)F` [4-(difluoromethyl)-5-(3,4-difluorophenoxy)-2,2-difluoro-1,1-dioxo-benzothiophen-3-one], for which the pIC50 is less than 4.00.
Same read-out and setting: the same measure for `O=C1CS(=O)(=O)c2ccc(Oc3cc(F)cc(F)c3)c(Br)c21` [4-bromo-5-(3,5-difluorophenoxy)-1,1-dioxo-benzothiophen-3-one]: less than 4.00.
The same measure, in the same setting: as for `N=S1(=O)CC(=O)c2c1ccc(Oc1cc(F)cc(F)c1)c2Br` (centres unmarked) [4-bromo-5-(3,5-difluorophenoxy)-1-imino-1-oxo-benzothiophen-3-one], the figure is less than 4.00.
The same measure, in the same setting: as for `O=S1(=O)c2ccc(Oc3cc(F)cc(Cl)c3)c(Br)c2C(O)C12CC2` (centres unmarked) [4-bromo-5-(3-chloro-5-fluoro-phenoxy)-1,1-dioxo-spiro[3H-benzothiophene-2,1′-cyclopropane]-3-ol], the figure is 4.00 to 4.60; as for `N#Cc1c(Oc2cc(F)cc(F)c2)ccc2c1C(O)CS2(=N)=O` (centres unmarked) [5-(3,5-difluorophenoxy)-3-hydroxy-1-imino-2,3-dihydro-1H-1λ^4-benzo[b]thiophene-4-carbonitrile 1-oxide], less than 4.00.
For the compound `N#Cc1cc(Oc2ccc3c(c2C(F)F)C(=O)C(F)(F)S3(=O)=O)ccc1F` [5-[4-(difluoromethyl)-2,2-difluoro-1,1,3-trioxo-benzothiophen-5-yl]oxy-2-fluoro-benzonitrile], the negative logarithm of the IC50 (pIC50) is 4.00 to 4.60.
With `N#Cc1cncc(Oc2ccc3c(c2C#N)[C@@H](O)CS3(=O)=O)c1` [5-[[(3R)-4-cyano-3-hydroxy-1,1-dioxo-2,3-dihydrobenzothiophen-5-yl]oxy]pyridine-3-carbonitrile], the pIC50 was 4.00 to 4.60.
Regarding `O=S1(=O)c2ccc(Oc3cc(F)cc(F)c3)c(Br)c2[C@@H](O)C1F` (stereo partly drawn) [(3R)-4-bromo-5-(3,5-difluorophenoxy)-2-fluoro-1,1-dioxo-2,3-dihydrobenzothiophen-3-ol], the pIC50 was less than 4.00.
Still for that read-out and setting: the same measure for `O=S1(=O)C[C@H](O)c2c1ccc(Oc1cncc(Cl)c1)c2Br` [(3R)-4-bromo-5-[(5-chloro-3-pyridyl]oxy]-1,1-dioxo-2,3-dihydrobenzothiophen-3-ol]: less than 4.00; for `O=S1(=O)C[C@H](O)c2c1ccc(Oc1cncc(F)c1)c2Br` [(3R)-4-bromo-5-[(5-fluoro-3-pyridyl)oxy]-1,1-dioxo-2,3-dihydrobenzothiophen-3-ol]: less than 4.00.
Take `N#Cc1c(Oc2cncc(Cl)c2)ccc2c1[C@@H](O)CS2(=O)=O` [(3R)-5-[(5-chloro-3-pyridyl)oxy]-3-hydroxy-1,1-dioxo-2,3-dihydrobenzothiophene-4-carbonitrile]: the negative logarithm of the IC50 (pIC50) was 4.00 to 4.60.
Still for that read-out and setting: the same measure for `N#Cc1c(Oc2cncc(F)c2)ccc2c1[C@@H](O)CS2(=O)=O` [(3R)-5-[(5-fluoro-3-pyridyl)oxy]-3-hydroxy-1,1-dioxo-2,3-dihydrobenzothiophene-4-carbonitrile]: 4.00 to 4.60.

What is called pIC50 is the negative decadic logarithm of the IC50, by convention in mol/L.
